Source: the NIST ThermoML archive (doi:10.1016/j.jct.2006.07.018)

Experiment: mn = molality of the nth substance listed, in mol/kg
Settings: 350 kPa, Liquid, Vibrating tube method

CSCC[C@H](N)C(=O)O [L-methionine] + O
mass density [kg/m3]
Settings | m1 = 0.0125 | m1 = 0.025 | m1 = 0.05 | m1 = 0.0997 | m1 = 0.1501 | m1 = 0.1929
278.15 K | 1000.87 | 1001.33 | 1002.43 | 1005.13 | 1007.08 | 1008.66
283.15 K | 1000.6 | 1001.06 | 1002.07 | 1004.77 | 1006.7 | 1008.25
288.15 K | 999.97 | 1000.44 | 1001.43 | 1004.07 | 1005.97 | 1007.5
298.15 K | 997.89 | 998.35 | 999.32 | 1001.89 | 1003.72 | 1005.21
308.15 K | 994.85 | 995.32 | 996.3 | 998.76 | 1000.54 | 1002.01
318.15 K | 991.01 | 991.47 | 992.35 | 994.85 | 996.62 | 998.08
328.15 K | 986.48 | 986.94 | 987.79 | 990.26 | 992 | 993.45
338.15 K | 981.32 | 981.79 | 982.66 | 985.05 | 986.79 | 988.23
348.15 K | 975.6 | 976.09 | 976.97 | 979.29 | 981.03 | 982.49
358.15 K | 969.38 | 969.84 | 970.77 | 973.02 | 974.79 | 976.26
368.15 K | 962.63 | 963.11 | 964.09 | 966.29 | 968.05 | 969.51
